Source: PMC8602723, “Comparative assessment of antimicrobial, antiradical and cytotoxic activities of cannabidiol and its propyl analogue cannabidivarin” (Scientific Reports, 2021)

Experiments:
[1] = ABTS assay (radical scavenging); settings: 50% reduction of initial ABTS radical absorbance, 6 min; 95% confidence limits in brackets
Experimental: An ABTS assay was performed following the procedure described by Lavorgna et al. 2019[66]. The cationic ABTS radical (ABTS^+) was generated by oxidizing ABTS (7 mM) with potassium persulfate (140 mM K2S2O8), and the mixture was incubated for 12–16 h in the dark. The ABTS^+ working solution was diluted to an absorbance of […] OD at 734 nm. […] Distilled water was used for the blank, Trolox was used for the standard control, and methanol was used for the solvent control.
The results are expressed as the median effective concentration (EC50). Furthermore, Trolox equivalent antioxidant capacity (TEAC) values were calculated following the procedure used by Shimamura end colleagues[68]:5 TEAC=EC50Trolox/EC50sample
(§1) All results from five independent experiments are expressed as the IC50 or EC50 as determined by analysis with Prism 5 software (GraphPad Inc., San Diego, CA, USA) and nonlinear regression (log agonist vs. normalized response-variable slope) with a 95% confidence range. Lowest observed adverse effect concentrations (LOAECs) were calculated by one-way ANOVA and Dunnett’s comparison test. Differences compared to the controls were considered significant as follows: *p < 0.05, **p < 0.001 and ***p < 0.0001.

[2] = DPPH assay (radical scavenging); settings: 50% reduction of initial DPPH radical absorbance, 30 min; 95% confidence limits in brackets
Experimental: DPPH assay was performed following the protocol described by Brand-Williams et al.[69]. DPPH^⋅ was dissolved in methanol, generating a purple solution (101.43 µM). […] Furthermore, 940 μL of methanol and 60 μL of distilled water were used for the blank. Trolox was used as the standard control, and methanol was used as the solvent control.
The results were expressed as the median effective concentration of sample able to reduce the initial absorbance of the DPPH radical (EC50). Furthermore, TEAC values were calculated in line with Shimamura end colleagues[68] as previously reported.
as §1

Cc1c(C)c2c(c(C)c1O)CCC(C)(C(=O)O)O2 (centres unmarked) [TROLOX, 6-Hydroxy-2,5,7,8-tetramethylchromane 2-carboxylic acid, reference compound]
EC50 [1]: 111 µM | EC50 [2]: 327 µM
